Data set [1] is described as follows: Clearance in Beagle Dog at 1 micromol/kg, iv. In kind it is ADME, Canis lupus familiaris. The settings on record: in vivo, dose 1 µmol/kg.
Data set [2] is described as follows: Oral bioavailability in Beagle dog at 2 mg/kg. The class given is ADME, organism-based, Canis lupus familiaris. The note with it: in vivo.
Data set [3] addresses T1, Phosphatidylinositol 4,5-bisphosphate 3-kinase catalytic subunit gamma isoform (Homo sapiens, UniProt P48736). Description: Inhibition of human recombinant PI3Kgamma using phosphatidylinositol as substrate in presence of [gamma33P]ATP by scintillation proximity assay. On the technique in general: Scintillation proximity formats need no separation of bound from free tracer.
Target sequence in this assay (P48736 whole entry, looked up, canonical isoform): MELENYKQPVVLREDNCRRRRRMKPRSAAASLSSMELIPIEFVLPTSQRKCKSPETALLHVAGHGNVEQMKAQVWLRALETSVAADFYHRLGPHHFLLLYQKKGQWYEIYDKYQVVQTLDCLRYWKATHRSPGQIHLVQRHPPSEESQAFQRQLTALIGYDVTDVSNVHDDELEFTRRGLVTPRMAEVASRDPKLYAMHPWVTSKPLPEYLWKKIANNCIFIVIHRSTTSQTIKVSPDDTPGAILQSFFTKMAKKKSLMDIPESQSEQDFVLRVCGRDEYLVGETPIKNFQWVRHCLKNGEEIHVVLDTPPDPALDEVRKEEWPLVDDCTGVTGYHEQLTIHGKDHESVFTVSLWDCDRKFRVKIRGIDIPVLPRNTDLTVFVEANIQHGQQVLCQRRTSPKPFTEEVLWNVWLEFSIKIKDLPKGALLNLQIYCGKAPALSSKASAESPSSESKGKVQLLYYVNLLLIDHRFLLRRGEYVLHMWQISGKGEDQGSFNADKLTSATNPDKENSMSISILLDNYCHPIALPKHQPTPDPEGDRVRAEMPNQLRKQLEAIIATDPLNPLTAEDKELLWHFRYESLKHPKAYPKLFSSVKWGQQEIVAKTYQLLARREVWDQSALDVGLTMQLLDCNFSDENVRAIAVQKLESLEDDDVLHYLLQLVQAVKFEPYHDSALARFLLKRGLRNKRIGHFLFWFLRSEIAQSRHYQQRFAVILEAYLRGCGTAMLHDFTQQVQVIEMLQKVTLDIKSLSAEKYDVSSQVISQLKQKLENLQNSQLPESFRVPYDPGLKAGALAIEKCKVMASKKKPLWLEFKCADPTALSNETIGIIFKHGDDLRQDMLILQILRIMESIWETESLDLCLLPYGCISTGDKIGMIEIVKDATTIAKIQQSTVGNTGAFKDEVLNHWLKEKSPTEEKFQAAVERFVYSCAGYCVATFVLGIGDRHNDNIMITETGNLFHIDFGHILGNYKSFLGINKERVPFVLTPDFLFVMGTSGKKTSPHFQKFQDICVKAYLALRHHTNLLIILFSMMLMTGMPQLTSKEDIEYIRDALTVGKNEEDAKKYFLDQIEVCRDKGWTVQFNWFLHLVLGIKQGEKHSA

In data set [4] the target is T2, Phosphatidylinositol 4,5-bisphosphate 3-kinase catalytic subunit delta isoform (Homo sapiens, UniProt O00329).
T2 sequence (O00329 whole entry): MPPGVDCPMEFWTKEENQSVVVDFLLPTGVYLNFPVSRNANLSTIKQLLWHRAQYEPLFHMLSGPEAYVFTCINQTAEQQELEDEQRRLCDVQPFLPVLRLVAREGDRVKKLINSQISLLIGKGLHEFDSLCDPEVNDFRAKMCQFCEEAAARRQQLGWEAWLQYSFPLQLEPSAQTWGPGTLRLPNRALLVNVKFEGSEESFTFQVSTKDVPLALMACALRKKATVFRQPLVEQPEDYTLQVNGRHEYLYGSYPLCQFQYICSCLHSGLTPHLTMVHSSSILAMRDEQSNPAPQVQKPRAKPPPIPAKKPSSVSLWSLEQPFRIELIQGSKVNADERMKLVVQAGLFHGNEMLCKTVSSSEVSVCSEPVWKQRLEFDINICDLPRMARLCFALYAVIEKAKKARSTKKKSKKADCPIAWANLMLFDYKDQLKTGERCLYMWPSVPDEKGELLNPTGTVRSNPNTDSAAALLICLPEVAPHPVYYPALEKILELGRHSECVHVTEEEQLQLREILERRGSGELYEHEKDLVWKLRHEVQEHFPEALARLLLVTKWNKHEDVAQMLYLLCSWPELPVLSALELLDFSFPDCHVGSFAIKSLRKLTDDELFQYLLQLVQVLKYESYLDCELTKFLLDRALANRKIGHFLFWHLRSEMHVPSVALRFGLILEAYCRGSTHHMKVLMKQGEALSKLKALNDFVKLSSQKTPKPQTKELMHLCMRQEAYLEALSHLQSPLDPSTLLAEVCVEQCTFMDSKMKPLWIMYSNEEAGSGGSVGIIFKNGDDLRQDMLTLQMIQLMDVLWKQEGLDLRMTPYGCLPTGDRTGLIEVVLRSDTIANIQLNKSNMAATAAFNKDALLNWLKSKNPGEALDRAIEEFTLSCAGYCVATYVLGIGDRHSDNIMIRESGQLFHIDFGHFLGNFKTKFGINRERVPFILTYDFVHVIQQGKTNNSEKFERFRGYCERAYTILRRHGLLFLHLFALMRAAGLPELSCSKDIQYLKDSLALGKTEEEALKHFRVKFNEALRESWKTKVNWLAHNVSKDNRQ
Description: Inhibition of P13Kdelta (unknown origin) in the presence of ATP by scintillation proximity assay.

The target in data set [5] is Phosphatidylinositol 4,5-bisphosphate 3-kinase catalytic subunit alpha isoform (Homo sapiens, UniProt P42336). The experiment in a line: Inhibition of PI3Kalpha (unknown origin) using […] as substrate preincubated for 10 mins followed by substrate addition by microplate reader analysis.
Phosphatidylinositol 4,5-bisphosphate 3-kinase catalytic subunit alpha isoform, sequence (P42336 whole entry, canonical isoform): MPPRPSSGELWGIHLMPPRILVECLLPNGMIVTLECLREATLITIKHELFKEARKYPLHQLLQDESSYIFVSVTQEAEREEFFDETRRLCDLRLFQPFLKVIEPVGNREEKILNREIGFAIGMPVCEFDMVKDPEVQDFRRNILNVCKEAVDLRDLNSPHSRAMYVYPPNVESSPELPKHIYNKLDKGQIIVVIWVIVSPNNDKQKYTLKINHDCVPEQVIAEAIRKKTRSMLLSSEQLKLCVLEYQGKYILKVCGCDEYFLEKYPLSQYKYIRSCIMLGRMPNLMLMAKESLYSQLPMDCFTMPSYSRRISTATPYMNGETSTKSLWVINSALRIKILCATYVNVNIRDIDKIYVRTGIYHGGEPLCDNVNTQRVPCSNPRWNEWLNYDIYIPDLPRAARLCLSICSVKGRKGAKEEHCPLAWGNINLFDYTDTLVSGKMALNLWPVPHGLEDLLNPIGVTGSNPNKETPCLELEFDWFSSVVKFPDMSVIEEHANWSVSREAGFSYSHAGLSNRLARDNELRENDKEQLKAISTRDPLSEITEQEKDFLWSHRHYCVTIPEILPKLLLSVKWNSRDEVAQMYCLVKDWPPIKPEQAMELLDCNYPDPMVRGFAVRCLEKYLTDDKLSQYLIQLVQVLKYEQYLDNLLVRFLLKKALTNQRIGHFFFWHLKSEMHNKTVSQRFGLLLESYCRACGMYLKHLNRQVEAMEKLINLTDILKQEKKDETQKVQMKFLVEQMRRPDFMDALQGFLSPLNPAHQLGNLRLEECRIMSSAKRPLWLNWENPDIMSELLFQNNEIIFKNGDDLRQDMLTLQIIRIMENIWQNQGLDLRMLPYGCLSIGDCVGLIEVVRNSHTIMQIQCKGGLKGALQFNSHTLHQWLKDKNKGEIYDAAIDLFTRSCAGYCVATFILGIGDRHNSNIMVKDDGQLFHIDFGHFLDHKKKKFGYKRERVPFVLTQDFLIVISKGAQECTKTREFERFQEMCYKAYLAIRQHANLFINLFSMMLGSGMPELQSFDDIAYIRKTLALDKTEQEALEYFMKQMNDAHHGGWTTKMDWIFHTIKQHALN
A short description of data set [6]: Inhibition of P13Kalpha (unknown origin) in the presence of ATP by scintillation proximity assay.
The nature of data set [7]: Oral bioavailability in rat at 10 mg/kg. The class given is ADME, organism-based. The settings on record: in vivo.
Data set [8] has as its target T1, Phosphatidylinositol 4,5-bisphosphate 3-kinase catalytic subunit gamma isoform. The experiment in a line: Inhibition of human PI3Kgamma expressed in baculovirus infected Sf21 insect cells by ADP-Glo assay.
Target sequence in this assay (P48736 whole entry, canonical isoform): as the sequence (P48736 whole entry, looked up, canonical isoform) above
For data set [9], the target named is T2, Phosphatidylinositol 4,5-bisphosphate 3-kinase catalytic subunit delta isoform. The experiment in a line: Inhibition of human PI3Kdelta expressed in baculovirus infected Sf21 insect cells by ADP-Glo assay. Background: ADP-Glo turns the ADP formed in a reaction into a luminescent signal.
Data set [10] has the same target. The experiment in a line: Inhibition of PI3Kdelta (unknown origin).
Data set [11] deals with T1, Phosphatidylinositol 4,5-bisphosphate 3-kinase catalytic subunit gamma isoform. The experiment in a line: Inhibition of PI3Kgamma (unknown origin).
Target sequence in this assay (P48736 whole entry, canonical isoform): as the sequence (P48736 whole entry, looked up, canonical isoform) above
The target in data set [12] is Phosphatidylinositol 4,5-bisphosphate 3-kinase catalytic subunit beta isoform (Homo sapiens, UniProt P42338). The experiment in a line: Inhibition of PI3Kbeta (unknown origin).
Phosphatidylinositol 4,5-bisphosphate 3-kinase catalytic subunit beta isoform, sequence (P42338 whole entry, canonical isoform): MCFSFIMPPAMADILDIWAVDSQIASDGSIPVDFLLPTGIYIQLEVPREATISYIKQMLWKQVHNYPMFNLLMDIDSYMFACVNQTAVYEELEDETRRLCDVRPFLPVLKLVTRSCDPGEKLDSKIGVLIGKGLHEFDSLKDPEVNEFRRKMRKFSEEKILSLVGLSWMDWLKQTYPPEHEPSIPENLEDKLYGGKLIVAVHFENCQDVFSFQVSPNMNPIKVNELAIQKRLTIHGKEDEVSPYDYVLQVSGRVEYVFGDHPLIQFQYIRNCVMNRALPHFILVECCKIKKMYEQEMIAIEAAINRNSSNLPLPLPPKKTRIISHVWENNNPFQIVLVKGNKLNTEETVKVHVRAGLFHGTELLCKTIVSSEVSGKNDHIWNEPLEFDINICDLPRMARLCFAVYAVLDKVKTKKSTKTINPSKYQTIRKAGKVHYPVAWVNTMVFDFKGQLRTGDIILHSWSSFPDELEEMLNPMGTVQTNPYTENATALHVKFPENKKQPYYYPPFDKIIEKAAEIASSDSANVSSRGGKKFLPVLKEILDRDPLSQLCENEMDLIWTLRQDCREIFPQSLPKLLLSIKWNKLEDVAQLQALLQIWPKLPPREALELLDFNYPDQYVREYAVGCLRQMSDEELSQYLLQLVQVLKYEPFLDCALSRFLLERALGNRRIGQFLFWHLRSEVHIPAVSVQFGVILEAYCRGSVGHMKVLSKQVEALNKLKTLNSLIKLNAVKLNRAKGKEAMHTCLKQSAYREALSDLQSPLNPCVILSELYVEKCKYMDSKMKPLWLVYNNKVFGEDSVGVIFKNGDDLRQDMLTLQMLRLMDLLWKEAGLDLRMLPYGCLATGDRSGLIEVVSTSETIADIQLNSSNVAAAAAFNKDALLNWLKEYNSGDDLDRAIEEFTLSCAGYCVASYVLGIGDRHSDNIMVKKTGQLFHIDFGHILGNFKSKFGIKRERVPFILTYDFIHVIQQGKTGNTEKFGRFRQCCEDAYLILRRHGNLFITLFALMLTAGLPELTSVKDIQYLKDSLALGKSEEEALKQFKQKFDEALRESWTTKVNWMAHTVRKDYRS
Data set [13] is described as follows: Inhibition of P13Kalpha (unknown origin).

The record followed here is ChEMBL document CHEMBL5500425, “Designing Small Molecule PI3Kγ Inhibitors: A Review of Structure-Based Methods and Computational Approaches” (J Med Chem, 2024).

Structures are written as SMILES.

One may read the clearance as the rate of elimination divided by the concentration. Read a high clearance as a high capacity for elimination. Usually bioavailability stands for dose-corrected exposure relative to a reference, in per cent. Read a high bioavailability as much systemic uptake. Broadly, the IC50 is the midpoint of a concentration-inhibition curve.

`CC(=O)Nc1nc(C)c(-c2cc3c(c(S(C)(=O)=O)c2)C(=O)N([C@@H](C)C2CC2)C3)s1` gave a clearance in data set [1] of 3.3 mL/min/kg. In data set [2], this molecule registered a bioavailability of 82%.
As to `Cc1cc(C(O)(CO)C(F)F)ccc1-c1cnc(N)c(C(=O)N2CC[C@H](CO)C2)n1` (stereo partly specified), the IC50 in [3] was not above 100 nM; in data set [4], less than 2000 nM.
In data set [5], `CC1(CCn2nc(-c3ccc(Cl)c(O)c3)c3c(N)ncnc32)COC1` displayed an IC50 of 172 nM.
As for `Cc1ncc(-c2cc(-c3ccc(S(=O)(=O)NCC(C)(C)O)cc3C)cnc2N)o1`, the IC50 in [6] was found to be 300 nM; in data set [3] it was 40 nM. In data set [7], this molecule displayed a bioavailability of 72%.
Take `Cc1nnc(-c2cc(-c3cc4c(c(S(C)(=O)=O)c3)C(=O)N([C@@H](C)C3CC3)C4)ccn2)[nH]1`: the IC50 in data set [4] is less than 2000 nM.
For the molecule `Cc1cc(S(=O)(=O)N[C@H]2CC[C@H](O)CC2)ccc1-c1cnc(N)c(C(=O)C2CC2)n1`, the half-maximal inhibitory concentration (IC50) in [6] is 110 nM; in data set [3] it was 24 nM. This molecule also returned a bioavailability in data set [7] of 23%.
For `Cc1nc(N)c2ncc(-c3cc(C(C)(O)CC(F)(F)F)ccc3C)n2n1` (stereo unspecified), in data set [4], the IC50 was less than 2000 nM.
For `COc1cncc(-c2ccc3nc(-c4nc5c(C)cccc5[nH]4)oc3c2)c1`, the IC50 in [8] is less than 250 nM; in data set [9], not below 5000 nM.
Consider `Clc1ccc(Cn2cc(-c3ccnc(-c4ncc(-c5ccccc5)[nH]4)c3)cn2)cc1`, for which, in [4], the IC50 was more than 500 nM.
On to `CC(NC(=O)c1c(N)nn2cccnc12)c1cc(Cl)c2c(C#N)ncn2c1N1CCS(=O)(=O)C(C)C1` (stereo unspecified), for which the IC50 in [10] is less than 2000 nM; in data set [11], less than 100 nM.
For `Cc1cc(S(=O)(=O)N[C@H]2CC[C@H](O)CC2)ccc1-c1cnc2c(N)c(Cl)ccn12`, the IC50 in [4] is not above 500 nM.
As to `CC(=O)c1c(C)n(-c2ccc(C)cc2)c2ccc(OCC(O)CNCc3ccc(Cl)cc3)cc12` (stereo unspecified), the IC50 in data set [12] and in data set [13] was more than 20000 nM each time.
